From PubChem BioAssay AID1645865 (Buhrlage Lab, Dana-Farber Cancer Institute and Novartis …, 2021)
Activity calls are given as the source filed them.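 Rule for the calls: active = maximal inhibition of the USP30 enzyme reaching 30% or more across the dose series; inactive = the rest.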

biological target: Ubiquitin carboxyl-terminal hydrolase 30 (Homo sapiens) (UniProt Q70CQ3); assay: ubiquitin-specific protease 30 DUB inhibitors, concentration-effect, biochemical, validation of primary actives (AID 1645865); conditions: purified USP30, Ub-rhodamine cleavage, fluorescence, 2 h
Sequence (Q70CQ3 whole entry, looked up): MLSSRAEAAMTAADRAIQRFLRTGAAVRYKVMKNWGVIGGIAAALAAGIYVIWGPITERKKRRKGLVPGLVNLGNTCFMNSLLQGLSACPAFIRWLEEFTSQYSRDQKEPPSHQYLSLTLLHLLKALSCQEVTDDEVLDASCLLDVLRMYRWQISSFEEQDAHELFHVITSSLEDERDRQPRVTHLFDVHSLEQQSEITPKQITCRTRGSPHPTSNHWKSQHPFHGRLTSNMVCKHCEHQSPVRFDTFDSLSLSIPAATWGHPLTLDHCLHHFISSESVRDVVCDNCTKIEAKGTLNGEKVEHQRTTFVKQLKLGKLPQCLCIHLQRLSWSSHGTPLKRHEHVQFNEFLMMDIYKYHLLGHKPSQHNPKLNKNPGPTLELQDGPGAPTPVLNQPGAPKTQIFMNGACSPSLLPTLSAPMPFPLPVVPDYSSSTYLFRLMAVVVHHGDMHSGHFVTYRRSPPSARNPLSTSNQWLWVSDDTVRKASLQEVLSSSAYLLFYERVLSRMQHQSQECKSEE

Row | Compound | IC50
1 | O=C(CNc1ccc(F)c(Cl)c1)Nc1ccc2c(c1)OCCO2 | > 50 µM (inactive)
2 | CCC(C(=O)NCc1ccncc1)N(c1cccc(Cl)c1)S(C)(=O)=O (configuration not stated) | > 50 µM (inactive)
3 | Cc1nc(Nc2ncc(C)s2)cc(C2CN(C(=O)Cc3ccccc3)CCO2)n1 (configuration not stated) | 33.7 µM
4 | CC(=O)Nc1ccc(S(=O)(=O)NCc2ccc(C(=O)NCc3ccc(C)cc3)cc2)cc1 | 26.5 µM
5 | O=C(Cn1cccc1-c1nc(-c2ccccc2)cs1)N1CCOCC1 | 20.6 µM
6 | Cc1ccc(Cl)cc1NC(=O)COC(=O)c1ccc2ccccc2n1 | > 50 µM (inactive)
7 | Cc1cc(N2CCN(c3ncccn3)CC2)nc2ccc(NC(=O)/C=C/c3ccccc3Cl)cc12 | 4.88 µM
8 | COc1ccccc1CC(=O)Nc1nc2ccccc2[nH]1 | 28.4 µM
9 | CCCCN(CC)c1ncnc2c1sc1nc(-c3ccco3)c3c(c12)CC(C)(C)OC3 | > 50 µM (inactive)
10 | N#Cc1ccc(NC(=O)c2ccc(S(=O)(=O)N3CCCCC3)cc2)cc1 | 8.97 µM
11 | O=S1(=O)CCN(Cc2c(F)cccc2F)c2c(F)nc(N3CCOCC3)c(F)c21 | > 50 µM (inactive)
12 | O=C(/C=C/c1ccc(F)cc1)N1CCc2ccccc2C1 | > 50 µM (inactive)
13 | CCS(=O)(=O)c1ccccc1C(=O)Nc1ccc2sc(C)nc2c1 | > 50 µM (inactive)
14 | CCn1c(CN2CCCC(c3nc(-c4cccnc4)n[nH]3)C2)nc2ccccc21 (configuration not stated) | > 50 µM (inactive)
15 | COc1cc2c(=O)n(CCC(=O)NCc3ccco3)c(=O)n(CC(=O)Nc3c(C)cccc3C)c2cc1OC | > 50 µM (inactive)
16 | COc1ccc(/C=C/C(=O)N2CCc3ccccc32)cc1S(=O)(=O)N1CCOCC1 | > 50 µM (inactive)
17 | COc1ccc2[nH]cc(S(=O)(=O)c3ccc(C)c(F)c3)c(=O)c2c1 | 46.4 µM
18 | COc1cccc(NC(=O)Cc2sc(Nc3cc(C)cc(C)c3)nc2O)c1 | 23 µM
19 | COCCCN1CCS(=O)(=O)c2c(Cl)c(F)nc(Oc3ccccc3F)c21 | > 50 µM (inactive)
20 | COc1c(O)c(O)c2c(=O)cc(-c3ccc(O)cc3)oc2c1OC | > 50 µM (inactive)
21 | O=c1ncn(Cc2ccc3c(c2)OCO3)cc1-c1ncc(C(F)(F)F)cc1Cl | 48.2 µM
22 | COc1ccc2nc3c(cc2c1)c(=O)n(C)c1c3c(=O)n(-c2ccccc2)c(=O)n1-c1ccccc1 | > 50 µM (inactive)
23 | CC(=O)c1ccc(NC(=O)CSc2nc(-c3ccccc3)nc3c2COC(C)(C)C3)cc1 | 2.77 µM
24 | C[C@@H]1O[C@@H](O[C@H]2[C@H](O[C@H]3[C@H](O[C@H]4CC[C@@]5(C)[C@@H](CC[C@]6(C)[C@@H]5CC=C5[C@@H]7CC(C)(C)CC(=O)[C@]7(C)CC[C@]56C)[C@@]4(C)CO)O[C@H](C(=O)O)[C@@H](O)[C@@H]3O)OC[C@@H](O)[C@@H]2O)[C@H](O)[C@H](O)[C@H]1O | > 50 µM (inactive)
25 | O=c1c2ccccc2ncn1C1CCN(S(=O)(=O)c2ccccc2F)CC1 | 30.8 µM

Row | Compound | IC50
26 | COC(=O)c1ccc(C(=O)Nc2cc3ccccc3cc2NC(=O)c2ccc(C(=O)OC)cc2)cc1 | 0.853 µM
27 | Fc1cccc(Cn2cc(-c3noc(-c4ccncc4)n3)nn2)c1 | 22.8 µM
28 | CC(C)(C)C(=O)[C@@H]1[C@@H](C(=O)c2ccc3c(c2)OCO3)[C@@]2(C(=O)Nc3ccccc32)[C@H]2c3ccccc3C=CN12 | > 50 µM (inactive)
29 | O=C(Nc1nnc2n1CCCS2)c1cc2ccccc2o1 | > 50 µM (inactive)
30 | COc1ccc(-c2cc3c(=O)n(CC(=O)Nc4ccccc4Cl)ccn3n2)cc1 | 4.23 µM
31 | CCCc1nc2sc3c(NCCCN4CCOCC4)ncnc3c2c2c1CCC2 | > 50 µM (inactive)
32 | CCOc1ccc(NC(=O)Cn2cnc(S(=O)(=O)N3CCc4ccccc43)c2)cc1 | 27.4 µM
33 | Cc1c(C(=O)Nc2cccc(C(F)(F)F)c2)cnn1-c1ccccn1 | 36 µM
34 | CCOc1ccccc1NC(=O)Cn1c(=O)n(CCCC(=O)NCc2ccc(C)cc2)c(=O)c2sccc21 | 2.53 µM
35 | O=C(NCc1ccc(F)cc1)C1CCCN(c2cnc3nccnc3c2)C1 (configuration not stated) | > 50 µM (inactive)
36 | O=C(COc1nsnc1N1CCOCC1)Nc1ccccc1F | > 50 µM (inactive)
37 | C/C1=C\CCC(C)C(O)CC(O)C(C)C(O)CCC(C)C(O)CC2(O)OC(CC(OC(=O)CC(=O)O)CC(O)CC(O)CC(O)C(C)C(O)/C=C/C(C)C(C(C)CCCCCCCCN=C(N)N)OC1=O)CC(O)C2O (configuration not stated) | > 50 µM (inactive)
38 | COc1ccc(NC(=O)c2nnc(C(=O)NCCN3CCCCCC3)s2)cc1 | 5.34 µM
39 | Cc1cc(C(=O)N2CCN(C3CCN(Cc4ccc(Cl)o4)CC3)C(=O)C2)c(C)o1 | > 50 µM (inactive)
40 | O=C(NCc1ccc(Cl)cc1)Nc1cccc2ccccc12 | 25.3 µM
41 | CCCN1C=NS(=O)(=O)c2cc(C(=O)Nc3ccc(OC)c(Cl)c3)ccc21 | 12.5 µM
42 | CN(CCCNC(=O)c1cccc2c1SCCC2=O)c1ccccc1 | > 50 µM (inactive)
43 | O=C(CC(C(=O)Nc1ccc2c(c1)OCO2)C(=O)c1ccccc1)Nc1ccc(Cl)cc1F (configuration not stated) | 2.61 µM
44 | Fc1cnc(N2CC[C@H]3CO[C@H](CNc4ncccn4)[C@H]3C2)nc1 | > 50 µM (inactive)
45 | O=C(COc1cccc(-n2cnnn2)c1)Nc1ccc2c(c1)OCCO2 | > 50 µM (inactive)
46 | Cc1cnnn1-c1ccc(C(=O)Nc2cc(Cl)ccc2Cl)cc1 | 20.7 µM
47 | Nc1c(C(=O)NCCc2ccccc2)nnn1-c1ccc(F)cc1 | 31.2 µM
48 | Nc1nc(-c2ccc[nH]2)cs1 | > 50 µM (inactive)
49 | CC(C)Cn1cc(OC(=O)c2ccc(F)cc2)c2c1nc(-c1ccc(F)cc1)n1c3ccccc3nc21 | > 50 µM (inactive)
50 | Cc1ccc2nc(N3CCc4ccccc4C3)c3nncn3c2c1 | > 50 µM (inactive)

Row | Compound | IC50
51 | Cc1sc2ncnc(OCc3ccc(F)cc3Cl)c2c1C | > 50 µM (inactive)
52 | COc1ccc(OC)c(C2CC(=O)Nc3n[nH]c(-c4ccccc4)c32)c1 (configuration not stated) | 25.6 µM
53 | CCCNC(=O)c1ccn(-c2ccc3ccc(-c4cnn(C)c4)cn23)n1 | > 50 µM (inactive)
54 | Cc1ccc2[nH]c(=O)c(CN(CC3CCCO3)S(=O)(=O)c3ccccc3)cc2c1 (configuration not stated) | 39.4 µM
55 | COc1ccc(NC(=O)CNC(=O)c2ccc3nc(-n4cccc4)sc3c2)cc1 | 1.86 µM
56 | Cc1cc(C)c(O)c(-c2cc(C(=O)Nc3ccccc3Cl)[nH]n2)c1 | 2.1 µM
57 | COc1ccc(Cl)cc1N1C(=O)[C@H]2[C@@H](C1=O)[C@]1(C(=O)Nc3c(C)cc(C)cc31)N1CCC[C@@H]21 | > 50 µM (inactive)
58 | COc1ccc(C(=O)Nc2nc3n(n2)C(c2ccccc2)CC(=O)N3)cc1 (configuration not stated) | 10.7 µM
59 | Cc1nc2ccc(NC(=O)COc3ccccc3[N+](=O)[O-])cc2s1 | 9.57 µM
60 | O=C(CC1C(=O)N(Cc2cccnc2)c2nc3ccccc3n21)Nc1cccc2ccccc12 (configuration not stated) | > 50 µM (inactive)
61 | CCOc1ccc(CCNC(=O)CCC(=O)Nc2ccc3nc(N4CCN(C)CC4)cc(C)c3c2)cc1OCC | > 50 µM (inactive)
62 | CCCc1cc(=O)oc2cc(OCC(=O)NCc3ccc(OC)cc3)ccc12 | 12.3 µM
63 | CCCC1Cc2c(sc3nc(SCC)nc(N)c23)CO1 (configuration not stated) | 13.8 µM
64 | CCc1cc(=O)n(CC(=O)Nc2cc(C)ccc2OC)c(N2CCOCC2)n1 | 26 µM
65 | O=C1CC(C(=O)Nc2ccccc2Cl)n2nc(-c3ccccc3)cc2N1 (configuration not stated) | 20.1 µM
66 | O=C(CN1C(=O)c2ccccc2Sc2ccc(C(=O)N3CCCC3)cc21)Nc1ccccc1Cl | > 50 µM (inactive)
67 | Cc1cc(N2CCC(NC(=O)NCc3ccc(F)cc3)C2=O)ccc1F (configuration not stated) | 7.68 µM
68 | CC(C)(C)OC(=O)N1CCN(C(=O)Cn2c(=O)nc(-c3ccccc3)c3ccccc32)CC1 | > 50 µM (inactive)
69 | O=C(NC(Cc1ccccc1)c1nc2ccccc2[nH]1)C1CC1 (configuration not stated) | > 50 µM (inactive)
70 | O=C(COc1ncnc2ccccc12)Nc1ccc2c(c1)OC1(CCCC1)O2 | 42.2 µM
71 | N#Cc1ccccc1COC(=O)c1ccc2ccccc2n1 | > 50 µM (inactive)
72 | Cc1ccc2c(c1)N=C(c1ccc([N+](=O)[O-])cc1)CO2 | > 50 µM (inactive)
73 | CCn1cnc2c(-c3ccccc3)cn(CC(=O)NCc3ccc4c(c3)OCO4)c2c1=O | 5 µM
74 | Cc1sc2ccn(C)c(=O)c2c1C(=O)NC1CCCC1 | 25.9 µM
75 | Cc1[nH]nc(NC(=O)C2COc3ccccc3O2)c1-c1ccccc1 (configuration not stated) | 40.7 µM

Row | Compound | IC50
76 | O=C(Cn1c(-c2ccccc2)ncc(C(=O)NC2CC2)c1=O)Nc1ccccc1 | 14.4 µM
77 | CC(=O)N1CCOc2cc(S(=O)(=O)N3CCCC3c3cc(C)no3)ccc21 (configuration not stated) | > 50 µM (inactive)
78 | Cc1c(-c2ccccc2)oc2c(C(=O)OCC(=O)Nc3ccccc3F)cccc2c1=O | > 50 µM (inactive)
79 | CC(C)(C)c1ccc(-c2nnc3n2-c2ccccc2SC3)cc1 | 19.1 µM
80 | Cc1c2c(nc3ccccc13)-c1ccccc1CC2 | > 50 µM (inactive)
81 | NS(=O)(=O)c1ccc(CNS(=O)(=O)c2ccc(-c3ccccn3)s2)cc1 | 24.5 µM
82 | O=C1C/C(=C\c2cccc(Cl)c2)Cc2ccccc21 | > 50 µM (inactive)
83 | O=C(NCc1ccc(F)cc1)c1cc(-n2cnnn2)ccc1Cl | 21.3 µM
84 | COc1ccc(C(=O)Nc2cc3c4c(c2)C(C)C(=O)N4CCC3)cc1 (configuration not stated) | > 50 µM (inactive)
85 | CCn1c(=N)n(CCOc2ccc(F)cc2)c2ccccc21 | 31.8 µM
86 | Nc1ccc(F)c(NS(=O)(=O)c2ccccc2)c1 | > 50 µM (inactive)
87 | CN1C(=O)[C@]23CC4=CC=C[C@H](O)[C@H]4N2C(=O)[C@@]1(CO)SS3 | 3.78 µM
88 | COc1ccc(-c2cc(N3CCC(NC(=O)c4ccccc4)C3)n[nH]2)cc1 (configuration not stated) | 19.8 µM
89 | CC(=O)Nc1ccc(S(=O)(=O)N2CCCC(C(=O)Nc3cccc4ccccc34)C2)cc1 (configuration not stated) | 25.5 µM
90 | COc1ccc(OC)c(NC(=O)CS(=O)(=O)c2cn(CC(=O)N3CCC(C)CC3)c3ccccc23)c1 | 42 µM
91 | O=C(CSc1nc2ccncc2[nH]1)Nc1ccc(Br)cc1F | 27.4 µM
92 | Cc1ccc(CNC(=O)Cn2cnc3c(cnn3-c3cccc(Cl)c3)c2=O)cc1 | 1.15 µM
93 | N#C/C(=C\c1ccc(-c2cc(Cl)ccc2Cl)o1)c1nnc2n1CCCCC2 | > 50 µM (inactive)
94 | Cc1cc(C(F)(F)F)n2nc(C3CCN(C(=O)c4cnn(C)c4C)C3)cc2n1 (configuration not stated) | > 50 µM (inactive)
95 | Cn1cc(CCNC(=O)c2cc3ccccc3[nH]2)c2cccnc21 | > 50 µM (inactive)
96 | O=C(COc1ccc2ccccc2c1)Nc1cccc2ccccc12 | 21 µM
97 | O=C(Nc1ccncc1)c1ncoc1-c1cccc(Cl)c1 | 35.5 µM
